Source: patent publication US7094760B2, “Peptides for treatment of inflammation and shock” (Salpep Biotechnology, Inc., priority 1996, dated 2006)
Ends that are not written are not given here.

How the values were obtained:
[1] = test system: jejunal segments from ovalbumin-sensitized rats; assay: antigen-induced jejunal segment contraction, URE/OA ratio, Example 7; set-up: species or system rat; conditions: 10 μg peptide; for URE/OA: 100 ng OA, 20 μg urecholine
Experimental: Animals and Tissue Preparation: Male Sprague-Dawley rats were sensitized to egg albumin (ovalbumin, OA) with 50 ng of Pertussis bordetella toxin as an adjuvant. Four to six weeks after sensitization, the rats were anaethetised with sodium pentobarbital and the jejunum was removed. Two cm sections of the jejunum were mounted in tissue baths under 0.75 g of isometric tension, and the tissues were allowed to equilibrate for 20 min prior to beginning the experiment.
10 μg of SGP-T or one of its analogues or fragments was added to a bath, while control tissues received the saline vehicle. Following a 10 min incubation, 100 ng of OA prepared in 0.9% saline was added. After the tissue had reached a maximal contractile response, the tissues were washed extensively to remove OA and peptide and, after the tissues had established baseline tension, 20 μg of urecholine (URE; a cholinergic-muscarinic receptor agonist) was added to determine the maximal contractile response of the tissue. The tissues were then removed from the bath, cleared of all underlying mucosa and the weight of the remaining muscle was determined.
Data Analysis: The tension (measured in grams) per gram tissue weight generated by each tissue in response to OA and URE was calculated. To normalize for differences in the ability of each tissue segment to contract in response to the muscle stimulants, the contractile response to […]. Thus, a measure of the antigen-induced contraction was expressed as the URE/OA ratio.
The data was analyzed using the one-way analysis of variance (ANOVA) and differences between groups was determined using the Student t-test for unpaired samples. The results are shown in FIGS. 7 and 8 and Tables 3 and 4.

[2] = test system: isolated jejunal segments from egg albumin-sensitised rats; assay: antigen-induced contraction of isolated jejunal segments, Examples 3 and 6; set-up: species or system rat; key to Biological Activity = inhibition of antigen-induced jejunal contraction by test peptide: +++ = highest inhibition (~60%); ++ = moderate inhibition (~40%); + = lowest inhibition (~20%); − = no inhibition
Experimental: SGP-T, at doses as low as 6.8×10^−7M, reduced antigen induced contractions of these isolated intestinal tissues by 60% (data not shown).
Analogues and fragments of SGP-T were tested for their ability to inhibit antigen (egg albumin)-induced intestinal contractions, using isolated jejunal segments from egg albumin-sensitised rats, as described in Example 3.

[3] = test system: LPS (Salmonella typhosa)-induced hypotension in sialadenectomized rats; assay: endotoxin (LPS)-induced hypotension, sialadenectomized rats; type: in vivo, rat
Experimental: (§1) The animal model of endotoxic shock used involves intravenous injection of endotoxin (3.5 mg/kg of lipopolysaccharide (LPS) from Salmonella typhosa) into pentobarbital-anaesthetized Sprague-Dawley rats, to produce a fall in mean arterial blood pressure within 3 to 5 minutes. The endotoxin was injected slowly over 1 min. via the jugular vein, and mean arterial blood pressure in mm mercury (MABP) was monitored continuously for 60 min, with the average blood pressure being calculated at 15, 30, 45 and 60 min. Studies were performed on unoperated rats and rats with their submandibular glands removed (sialadenectomized).
(§2) The results shown in Table 1 are the averages of three different experiments using the protocol defined above. The data shown represent the average decrease in MABP (dec MABP) and the % Decrease in MABP over the 60 minutes following LPS administration. SGP-S (100μg/kg) and SGP-T (100 μg/kg) were administered 90 min. before LPS. […] Neither SGP-T nor SGP-S, when given prior to the LPS challenge, had appreciable effects on MABP.
(§3) The dose-response relationship of the inhibitory effect of SGP-T and SGP-S on endotoxin-induced hypotension was also examined and the results are shown in FIG. 1.

[4] = test system: LPS (Salmonella typhosa)-induced hypotension in unoperated rats; assay: endotoxin (LPS)-induced hypotension, unoperated rats; type: in vivo, rat
Experimental: as §1, §2
Overall, SGP-T reduced by 60% the decrease and the percent decrease in MABP induced by endotoxin, relative to pre-LPS values. SGP-S, on the other hand, had no effect on the shock induced by endotoxin in unoperated rats.
as §3

[5] = peptide 100 μg/kg 90 min before LPS 3.5 mg/kg iv

Substance | URE/OA ([1]; Table 3, saline 4.0 ± 0.4) | Biological Activity = inhibition of antigen-induced jejunal contraction by test peptide [2] | anti-anaphylactic activity in jejunal assay, in words [1] | further results
ADIFEGG [T3, alanine analogue of SGP-T] | 3.6 ± 0.9 | − |  | 
FE-Citrulline |  |  | loss of biological activity | URE/OA ([1]; Table 4, saline 5.7 ± 1.0): 5.0 ± 1.1
FE-Proline |  |  | loss of biological activity | URE/OA ([1]; Table 4, saline 5.7 ± 1.0): 6.2 ± 1.3
FE-Sarcosine |  |  |  | URE/OA ([1]; Table 4, saline 5.7 ± 1.0): 10.0 ± 1.6
FEG |  | ++ (++ = moderate inhibition (~40%)) |  | 
FEGGG [T6] | 10.7 ± 2.0 | ++ (++ = moderate inhibition (~40%)) | no effect on activity | 
NH2-Ser-Gly-Glu-Gly-Val-Arg-COOH (H-SGEGVR-OH) [SGP-S, submandibular gland peptide S, SGEGVR] |  |  |  | effect on drop in MABP after LPS [3]: significantly reduced the drop in MABP; % Dec = percent decrease in MABP relative to MABPbef [3, 5]: −32.3 ± 3.9 %; MABPaft = average MABP for 60 mins after LPS injection [3, 5]: 81.6 ± 5.8 mm Hg; dec MABP = decrease in MABP after LPS relative to MABPbef [3, 5]: −37.6 ± 4.4 mm Hg; effect on drop in MABP / shock induced by endotoxin [4]: no effect; % Dec = percent decrease in MABP relative to MABPbef [4, 5]: −22.9 ± 1.3%; MABPaft = average MABP for 60 mins after LPS injection [4, 5]: 95.2 ± 4.3 mm Hg; dec MABP = decrease in MABP after LPS relative to MABPbef [4, 5]: −28.1 ± 1.8 mm Hg
STDIFEGG [T2, analogue of SGP-T] | 3.58 ± 1.07 | − |  | 
TAIFEGG [T7, alanine analogue of SGP-T] | 12.3 ± 2.2 | +++ (+++ = highest inhibition (~60%)) | minimal effect on prevention of anaphylaxis | 
TDAFEGG [T10, alanine analogue of SGP-T] | 8.3 ± 1.9 | + (+ = lowest inhibition (~20%)) | minimal effect on prevention of anaphylaxis | 
TDIAEGG [T11, alanine analogue of SGP-T] | 5.2 ± 1.2 | − |  | 
TDIFAGG [T9, alanine analogue of SGP-T] | 7.2 ± 1.1 | − |  | 
TDIFE [T4] | 1.7 ± 0.3 | − | abolished anti-anaphylactic activity | 
TDIFEGG-NH2 [T5, SGP-T with amidated terminal glycine] | 4.3 ± 0.7 | − | abolished anti-anaphylactic activity | 
